Results: patent US8207134B2, “Fused ring spiroketal derivative and use thereof as anti-diabetic drug” (Chugai Seiyaku Kabushiki Kaisha, priority 2006, dated 2012)

Biological target: T1, human SGLT2 (Homo sapiens, UniProt P31639)
T1 construct: expressed in transfected cells; host or cells: CHO-K1
T1 sequence (P31639 1-672): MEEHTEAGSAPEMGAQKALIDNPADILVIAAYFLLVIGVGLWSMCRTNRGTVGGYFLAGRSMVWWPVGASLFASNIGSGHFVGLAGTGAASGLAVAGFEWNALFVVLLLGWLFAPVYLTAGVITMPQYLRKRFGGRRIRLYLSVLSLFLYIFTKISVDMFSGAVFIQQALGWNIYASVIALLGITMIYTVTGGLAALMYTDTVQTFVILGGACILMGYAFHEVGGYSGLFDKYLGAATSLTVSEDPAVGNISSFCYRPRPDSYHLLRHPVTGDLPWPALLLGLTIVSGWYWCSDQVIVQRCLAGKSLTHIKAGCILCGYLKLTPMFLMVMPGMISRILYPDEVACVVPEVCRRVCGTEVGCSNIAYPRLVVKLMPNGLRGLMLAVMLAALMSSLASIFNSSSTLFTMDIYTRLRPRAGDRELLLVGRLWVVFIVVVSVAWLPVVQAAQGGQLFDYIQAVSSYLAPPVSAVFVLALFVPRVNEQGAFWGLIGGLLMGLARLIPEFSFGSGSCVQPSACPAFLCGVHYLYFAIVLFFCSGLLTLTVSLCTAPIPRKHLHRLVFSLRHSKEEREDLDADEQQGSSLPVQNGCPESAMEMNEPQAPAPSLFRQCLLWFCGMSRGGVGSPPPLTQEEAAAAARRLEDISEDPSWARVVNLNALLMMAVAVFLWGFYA
Test: Inhibitory activity against methyl-α-D-glucopyranoside uptake of human Na+-glucose cotransporter SGLT2
Type: cell-based
Settings: CHO-K1 cells stably expressing human SGLT2; methyl-α-D-(U-14C)glucopyranoside uptake, 37° C. for 45 minutes; read-out: Ic50 value (inhibition of SGLT2)
From the text: Evaluation of Inhibitory Activity Against Methyl-α-D-Glucopyranoside Uptake of Human Na^+-Glucose Cotransporter (SGLT1 and SGLT2)
2) Construction of Human SGLT2 Expression Vector
Human SGLT2 cDNA was amplified by PCR with a cDNA library derived from human kidney (Clontech) as a template, synthetic DNA primers and KOD+ DNA Polymerase. The amplified cDNA was inserted into pcRII-Topo vector by using a Topo TA Cloning Dual Promoter kit. E. coli competent cells (TPO10) were transformed with the plasmid vector, cultured in LB medium containing ampicillin (50 mg/L) to grow ampicillin-resistant clones. The plasmid vector containing human SGLT2 cDNA was purified from the clone in a standard manner. Human SGLT2 cDNA added restriction enzyme recognition sites (Xho I at 5′-end, Hind III at 3′-end) was amplified by PCR with the plasmid vector as a template, synthetic DNA primers containing an additional restriction enzyme recognition site and KOD+ DNA Polymerase. This amplified cDNA was digested with Xho I and Hind III, and ligated into expression vector pcDNA3.1(−) digested with Xho I and Hind III by using a Rapid DNA Ligation kit. E. coli competent cells (DH5α) were transformed with the ligated expression vector and grown in ampicillin-containing LB medium. Human SGLT2 expression vector was purified from the ampicillin-resistant clone in a standard manner.
3) Establishment of Cell Lines Stably Expressing Human SGLT1 or Human SGLT2
The human SGLT1 expression vector or the human SGLT2 expression vector was digested with the restriction enzyme Pvu I and transfected into CHO-Kl cells with FuGENE (Roche Diagonostics). After the transfection, the cells were cultured at 37° C. in the presence of 5% CO2 for about 3 weeks in DMEM medium (Gibco) containing penicillin (50 U/mL, SIGMA), streptomycin (50 mg/L, SIGMA), geneticin (200 mg/L, Nacalai Tesque, Inc., Japan) and 20% fetal bovine serum to obtain geneticin-resistant clones. […]

Row | IC50 [nM] | SMILES
1 | 2 | CCc1ccc(Cn2ccc3cc4c(cc32)[C@]2(OC4)O[C@H](CO)[C@@H](O)[C@H](O)[C@H]2O)cc1 [Example 2, (3′R,4′S,5′S,6′R,7S)-1-[(4-ethylphenyl)methyl]-6′-hydroxymethyl-3′,4,5′,6′-tetrahydro-spiro[furo[3,4,f]indole-7(5H),2′-[2H]pyran]-3′,4′,5′-triol]
2 | 5.1 | CCc1ccc(Cc2cccc3c4c(sc23)C2(OCC4)O[C@H](CO)[C@@H](O)[C@H](O)[C@H]2O)cc1 (stereo in doubt) [Example 3, (1S,3′R,4′S,5′S,6′R)-8-[(4-ethylphenyl)methyl]-3,3′,4,4′,5′,6′-hexahydro-6′-hydroxymethyl-spiro[2-oxa-9-thia-fluorene-1,2′-[2H]pyran]-3′,4′,5′-triol]
3 | 3.9 | CCc1ccc(Cc2csc3cc4c(cc23)[C@]2(OC4)O[C@H](CO)[C@@H](O)[C@H](O)[C@H]2O)cc1 [Example 1, (3′R,4′S,5S,5′S,6′R)-3-[(4-ethylphenyl)methyl]-6′-(hydroxymethyl)-3′,4′,5′,6′-tetrahydro-spiro[thieno[2,3,f]isobenzofuran-5(7H),2′-[2H]pyran]-3′,4′,5′-triol]
